Data reported in US20250263415A1, “TERTIARY AMIDE DERIVATIVES SUBSTITUTED WITH 4-MEMBERED RING STRUCTURE” (Sumitomo Pharma Co., Ltd., priority 2024, published 2025).

Legend:
hSERT = hSERT (Homo sapiens (Human), UniProt P31645); test: Serotonin receptor inhibitory activity evaluation (binding assay, HEK293/hSERT membranes); settings: off-target
Description: The binding evaluation assay was outsourced to Eurofins. Specifically, HEK293/hSERT cells were homogenized in a buffer consisting of 100 mmol/L NaCl, 1 μmol/L Leupeptin, 10 μmol/L PMSF, and 50 mmol/L Tris-HCl (pH7.4). The membrane pellet obtained by centrifugation was resuspended in an incubation buffer consisting of 50 mmol/L Tris-HCl (pH 7.4), 120 mmol/L NaCl, and 5 mmol/L KCl to prepare a membrane preparation. The test compound (1-10 μmol/L DMSO solution), the membrane preparation, and 0.4 nmol/L [^3H]Paroxetin were mixed and incubated at 25° C. for 60 minutes. The cell membrane-[^3H]Paroxetin complex was bound to a GF/B filter mat by vacuum filtration and washed with 50 mmol/L Tris-HCl (pH 7.4). The effect on the receptor was assessed by measuring radioactivity using a scintillation counter.

G-401 xenograft [1] = test: Drug efficacy evaluation by oral administration using G-401 xenograft model mice; type: in vivo
Description: (§1) G-401 cells (ATCC) were intradermally transplanted into 4-7-week-old BALB/cAnNCrj-nu/nu mice (CAnN.Cg-Foxnl/CrlCrlj, Jackson Laboratory Japan) at 5×10^5 cells/mouse. After confirming the engraftment of G-401 cells 10-40 days after transplantation, the test compound suspended in a solvent such as 0.5% methylcellulose solution was orally administered twice a day at a dose of 1-100 mg/kg. The tumor volume was measured over time from the start of administration, and the effect of tumor volume reduction by administration of the test compound was evaluated. The tumor volume can be calculated from the following equation using the minor axis and major axis of the tumor measured with an electronic caliper (Mitutoyo).
A control administration group administered with only a solvent such as 0.5% methylcellulose solution and a test compound administration group were compared, and the antitumor effect was evaluated by calculating T/C from the following equation.

G-401 xenograft [2] = test: Drug efficacy evaluation by intravenous administration using G-401 xenograft mice model; type: in vivo; settings: G-401 xenograft model
Description: as §1, with “as 10 mmol/L glycine buffer” for “as 0.5% methylcellulose”, “solution (pH 2.0)” for “solution”, “was” for “was orally”, “administered via the tail vein at least once” for “administered twice”, “a week” for “a day”, “of 0.015-20” for “of 1-100”
A control administration group administered with only a solvent such as 10 mmol/L glycine buffer solution (pH 2.0) and a test compound administration group were compared, and the antitumor effect was evaluated by calculating T/C from the following equation.

G-401 cells = test: Cell proliferation inhibition experiment using G-401 cells; type: cell-based
In short: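 Malignant rhabdoid tumor-derived cells, grown in McCoy's 5A with 10% FBS, were seeded at 500 cells/well and dosed one day later (final DMSO 0.1%). After 3 days of culture at 37° C, viability was read by CellTiter-Glo luminescence.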

recombinant p300 = recombinant p300 (Homo sapiens (Human), UniProt Q09472); test: HAT activity inhibition experiment (SensoLyte HAT(p300) Assay Kit); type: biochemical
Sequence of recombinant p300 (Q09472 whole entry): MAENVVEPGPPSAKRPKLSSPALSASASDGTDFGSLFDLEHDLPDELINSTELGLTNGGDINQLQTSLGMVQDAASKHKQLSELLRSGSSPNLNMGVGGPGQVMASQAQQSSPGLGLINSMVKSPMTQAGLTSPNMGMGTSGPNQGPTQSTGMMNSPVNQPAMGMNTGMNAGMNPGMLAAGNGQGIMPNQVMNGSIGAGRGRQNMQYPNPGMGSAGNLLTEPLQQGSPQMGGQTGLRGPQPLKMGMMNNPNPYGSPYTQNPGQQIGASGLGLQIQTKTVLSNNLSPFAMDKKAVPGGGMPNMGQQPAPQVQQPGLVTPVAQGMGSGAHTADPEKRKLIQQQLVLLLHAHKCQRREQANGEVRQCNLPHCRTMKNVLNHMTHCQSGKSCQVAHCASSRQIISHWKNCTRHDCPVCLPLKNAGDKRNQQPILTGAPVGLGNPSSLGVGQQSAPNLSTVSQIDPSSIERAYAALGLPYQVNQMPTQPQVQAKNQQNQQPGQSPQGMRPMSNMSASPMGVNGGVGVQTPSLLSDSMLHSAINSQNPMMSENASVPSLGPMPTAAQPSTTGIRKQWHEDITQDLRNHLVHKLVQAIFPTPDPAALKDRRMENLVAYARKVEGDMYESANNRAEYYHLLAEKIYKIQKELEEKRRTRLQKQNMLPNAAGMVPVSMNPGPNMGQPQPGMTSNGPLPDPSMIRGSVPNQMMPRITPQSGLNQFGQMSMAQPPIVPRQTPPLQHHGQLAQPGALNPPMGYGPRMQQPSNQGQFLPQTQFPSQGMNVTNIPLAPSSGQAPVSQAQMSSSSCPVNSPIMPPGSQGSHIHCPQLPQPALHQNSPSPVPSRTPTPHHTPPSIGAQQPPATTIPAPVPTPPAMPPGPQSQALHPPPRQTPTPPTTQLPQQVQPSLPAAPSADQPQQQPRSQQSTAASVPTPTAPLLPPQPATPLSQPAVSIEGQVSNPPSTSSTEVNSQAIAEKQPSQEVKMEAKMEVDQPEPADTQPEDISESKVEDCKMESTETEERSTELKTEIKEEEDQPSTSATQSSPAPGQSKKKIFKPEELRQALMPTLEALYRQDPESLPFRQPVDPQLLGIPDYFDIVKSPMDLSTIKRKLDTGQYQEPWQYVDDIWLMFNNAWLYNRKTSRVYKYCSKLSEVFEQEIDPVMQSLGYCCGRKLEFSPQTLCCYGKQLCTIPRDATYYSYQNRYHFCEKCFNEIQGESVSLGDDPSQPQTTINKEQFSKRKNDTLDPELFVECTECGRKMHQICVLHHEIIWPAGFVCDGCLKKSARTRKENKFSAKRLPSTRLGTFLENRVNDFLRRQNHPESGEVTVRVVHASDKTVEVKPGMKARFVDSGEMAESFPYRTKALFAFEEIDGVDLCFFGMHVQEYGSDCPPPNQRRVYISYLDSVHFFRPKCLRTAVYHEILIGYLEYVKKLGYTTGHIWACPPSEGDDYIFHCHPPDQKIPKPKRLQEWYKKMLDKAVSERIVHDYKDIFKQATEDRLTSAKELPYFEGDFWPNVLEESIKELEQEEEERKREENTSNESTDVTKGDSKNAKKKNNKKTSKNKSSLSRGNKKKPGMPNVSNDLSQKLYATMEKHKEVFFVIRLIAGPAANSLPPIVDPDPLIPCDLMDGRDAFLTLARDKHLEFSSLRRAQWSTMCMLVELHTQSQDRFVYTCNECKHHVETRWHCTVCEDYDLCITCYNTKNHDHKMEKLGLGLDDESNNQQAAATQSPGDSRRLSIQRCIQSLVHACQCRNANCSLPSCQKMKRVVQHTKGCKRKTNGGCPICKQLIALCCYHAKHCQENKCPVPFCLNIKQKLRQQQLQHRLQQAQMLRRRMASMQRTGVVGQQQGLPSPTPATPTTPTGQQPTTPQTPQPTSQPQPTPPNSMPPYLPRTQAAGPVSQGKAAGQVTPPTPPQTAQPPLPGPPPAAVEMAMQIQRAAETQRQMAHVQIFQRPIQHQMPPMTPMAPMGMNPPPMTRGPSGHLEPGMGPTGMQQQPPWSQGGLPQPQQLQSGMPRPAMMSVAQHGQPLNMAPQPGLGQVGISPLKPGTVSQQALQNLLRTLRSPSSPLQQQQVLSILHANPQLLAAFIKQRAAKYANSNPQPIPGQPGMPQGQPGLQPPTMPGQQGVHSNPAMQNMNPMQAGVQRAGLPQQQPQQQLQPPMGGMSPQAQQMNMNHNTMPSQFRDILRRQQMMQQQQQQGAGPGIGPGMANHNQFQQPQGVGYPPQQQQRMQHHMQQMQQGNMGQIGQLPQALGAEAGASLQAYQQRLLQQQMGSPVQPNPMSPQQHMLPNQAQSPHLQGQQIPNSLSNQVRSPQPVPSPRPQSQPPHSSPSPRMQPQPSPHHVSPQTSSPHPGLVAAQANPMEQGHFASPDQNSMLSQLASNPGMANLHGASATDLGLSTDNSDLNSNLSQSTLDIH
Description: The HAT activity inhibitory ability of HAT inhibitors was evaluated using SensoLyte HAT(p300) Assay Kit (ANASPEC, AS-72172). Specifically, 7.5 μL of the compound of Examples […] diluted with assay buffer was added to 7.5 μL of recombinant p300 solution diluted 10 times with assay buffer, and the mixture was incubated at room temperature for 10 minutes. 7.5 μL of acetyl CoA solution diluted 10 times with assay buffer and 15 μL of histone H3 peptide diluted 10 times with assay buffer were added thereto, and the mixture was incubated at 37° C. for 30 minutes. 37.5 μL of Stop Solution was added to stop the reaction. 75 μL of p300 Developer solution diluted 50 times with assay buffer was added, and the mixture was incubated at room temperature for 30 minutes under light-shielded conditions. The fluorescence at 513 nm when irradiated with 389 nm excitation light was measured using a multiplate reader.

hDAT = hDAT (Homo sapiens (Human), UniProt Q01959); test: Dopamine receptor inhibitory activity evaluation (binding assay, CHO-S/hDAT membranes); settings: off-target
Sequence of hDAT (Q01959 whole entry): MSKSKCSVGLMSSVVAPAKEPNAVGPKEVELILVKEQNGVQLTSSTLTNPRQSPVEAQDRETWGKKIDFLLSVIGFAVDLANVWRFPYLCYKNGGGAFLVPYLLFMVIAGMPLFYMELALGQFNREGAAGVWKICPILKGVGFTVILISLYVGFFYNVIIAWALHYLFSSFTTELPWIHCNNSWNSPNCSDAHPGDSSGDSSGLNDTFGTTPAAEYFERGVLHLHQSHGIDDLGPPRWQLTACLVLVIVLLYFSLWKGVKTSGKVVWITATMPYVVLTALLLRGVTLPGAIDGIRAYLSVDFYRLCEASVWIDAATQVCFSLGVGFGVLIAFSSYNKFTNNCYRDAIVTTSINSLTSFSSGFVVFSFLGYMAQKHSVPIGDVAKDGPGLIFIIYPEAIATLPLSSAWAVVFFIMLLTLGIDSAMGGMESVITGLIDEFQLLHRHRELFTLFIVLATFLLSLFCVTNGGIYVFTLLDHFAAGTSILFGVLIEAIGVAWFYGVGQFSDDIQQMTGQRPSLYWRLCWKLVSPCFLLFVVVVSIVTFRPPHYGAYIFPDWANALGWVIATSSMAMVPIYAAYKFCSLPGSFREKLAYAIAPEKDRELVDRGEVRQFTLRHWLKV
Description: The binding evaluation assay was outsourced to Eurofins. Specifically, CHO—S/hDAT cells were homogenized in an incubation buffer consisting of 50 mmol/L Tris-HCl, pH 7.4, 100 mmol/L NaCl, 1 μmol/L Leupeptin, and 10 μmol/L PMSF. The membrane pellet obtained by centrifugation was resuspended in the incubation buffer to prepare a membrane preparation. The test compound (1-10 μmol/L DMSO solution), the membrane preparation, and 0.15 nmol/L […] were mixed and incubated at 4° C. for 180 minutes. The cell membrane-[^125I]RTI-55 complex was bound to a GF/B filter mat by vacuum filtration and washed with 50 mmol/L Tris-HCl, pH 7.4. The effect on the receptor was assessed by measuring radioactivity using a scintillation counter.

Solubility test = type: physicochemical; settings: pH 2.0 and pH 3.0 buffers
Description: The solubility was measured for Examples 7, 10, 20, 23, 24, and 30 to 34, Comparative Example 1, and Comparative Example 2. The test compound was added to 10 mmol/L glycine buffer (pH 2.0) and 10 mmol/L citrate buffer (pH 3.0), and the mixture was stored in a thermostatic chamber at 5° C. After standing overnight, the mixture was filtered through a membrane filter, and the concentration of the filtrate was measured by HPLC.
The HPLC measurement conditions are as follows.
HPLC conditions • Column: Acquity UPLC BEH C18, 1.7 μm, 50×2.1 mm • Column temperature: 40° C. • Mobile phase: A: 0.1% trifluoroacetic acid-containing water • B: acetonitrile • A/B (min): 95/5 (0)→0/100 (3.5)→0/100 (4)→95/5 (4.01)→95/5 (5) • Flow rate: 0.8 mL/min • Detection: UV visible detector, measurement wavelength 254 nm • Injection volume: 5 μL or • Column: Acquity UPLC BEH C18, 1.7 μm, 50×2.1 mm • Column temperature: 40° C. • Mobile phase: A: 0.1% trifluoroacetic acid-containing water • B: acetonitrile • A/B (min): • 80/20 (0)→40/60 (3.0)→0/100 (3.5)→0/100 (4)→80/20 (4.01)→80/20 (5) • Flow rate: 0.8 mL/min • Detection: UV visible detector, measurement wavelength 254 nm • Injection volume: 2 μL or • Column: Acquity UPLC BEH C18, 1.7 μm, 50×2.1 mm • Column temperature: 40° C. • Mobile phase: A: 0.1% trifluoroacetic acid-containing water • B: acetonitrile • A/B (min): • 80/20 (0)→40/60 (3.0)→0/100 (3.5)→0/100 (4)→100/0 (4.01)→100/0 (5) • Flow rate: 0.8 mL/min • Detection: UV visible detector, measurement wavelength 254 nm • Injection volume: 3 μL

[3] = Pharmacokinetic study in mice; type: in vivo
Description: The test compound was administered to 7-week-old female BALE/c (BALB/cAnN CrlCrlj) mice intravenously (dosage: 1 mg/kg) in a 50% PEG solution (0.01 mol/L HCl) or orally (dosage: 10 mg/kg) in a 0.5% methylcellulose aqueous solution, and blood was collected at the following times: • Intravenous administration: 5 min, 15 min, 30 min, 1 hr, 2 hr, 4 hr, 6 hr, and 24 hr after administration • Oral administration: 15 min, 30 min, 1 hr, 2 hr, 4 hr, 6 hr, and 24 hr after administration
The collected blood was centrifuged at 3000 rpm×10 min using a refrigerated centrifuge set at 4° C., and the obtained plasma was measured by LC-MS. A calibration curve was prepared from the value (peak ratio) obtained by dividing the peak area of the test substance by the peak area of the internal standard substance in MS and the concentration of the plasma calibration curve sample. The concentration in the sample was calculated from the peak ratio and the calibration curve of each sample.

Sequence of hSERT (P31645 whole entry): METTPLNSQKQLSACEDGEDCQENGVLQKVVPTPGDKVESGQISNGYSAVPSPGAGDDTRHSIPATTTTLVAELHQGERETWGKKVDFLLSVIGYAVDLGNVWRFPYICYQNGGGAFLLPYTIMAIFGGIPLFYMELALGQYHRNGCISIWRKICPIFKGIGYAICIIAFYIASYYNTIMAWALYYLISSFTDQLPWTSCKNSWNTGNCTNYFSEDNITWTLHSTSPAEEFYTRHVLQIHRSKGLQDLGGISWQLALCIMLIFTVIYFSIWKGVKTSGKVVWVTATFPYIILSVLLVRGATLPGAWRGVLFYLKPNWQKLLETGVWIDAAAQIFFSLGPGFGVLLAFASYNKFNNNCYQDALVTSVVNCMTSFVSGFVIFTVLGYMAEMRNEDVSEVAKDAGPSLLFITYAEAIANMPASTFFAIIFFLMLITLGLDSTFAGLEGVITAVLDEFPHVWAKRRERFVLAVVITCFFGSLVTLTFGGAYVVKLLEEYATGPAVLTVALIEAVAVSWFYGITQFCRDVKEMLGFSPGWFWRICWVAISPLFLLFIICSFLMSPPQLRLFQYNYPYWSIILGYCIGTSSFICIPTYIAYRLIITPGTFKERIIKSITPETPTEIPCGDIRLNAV

O=C1N[C@]2(C[C@@H](F)c3cc(-c4cnn(C5CN(C6COC6)C5)c4)ccc32)C(=O)N1CC(=O)N(Cc1ccc(F)cn1)C1(C(F)(F)F)COC1 [Example 7, 2-[(1′S,3′R)-3′-fluoro-5′-{1-[1-(oxetan-3-yl)azetidin-3-yl]-1H-pyrazol-4-yl}-2,5-dioxo-2′,3′-dihydrospiro[imidazolidine-4,1′-inden]-1-yl]-N-[(5-fluoropyridin-2-yl)methyl]-N-[3-(trifluoromethyl)oxetan-3-yl]acetamide]
Inhibitory effect on serotonin receptors (in words) (hSERT): did not show strong inhibitory activity
Antitumor effect, oral administration (in words) (G-401 xenograft [1]): strong antitumor effects
Antitumor effect, intravenous administration (in words) (G-401 xenograft [2]): strong antitumor effects
Cell proliferation inhibitory effect on G-401 cells (in words) (G-401 cells): strong cell proliferation inhibitory effect
HAT activity inhibition (in words) (recombinant p300): strong inhibition of HAT activity
Inhibitory effect on dopamine receptors (in words) (hDAT): did not show strong inhibitory activity
Solubility (in words) (Solubility test): high solubility
Pharmacokinetics (in words) [3]: excellent pharmacokinetics
